target: full-length human LSD1 (Homo sapiens (Human), UniProt O60341); test: In vitro enzyme inhibition assay LSD-1 (TR-FRET); type: biochemical; settings: H3K4me1-biotin peptide
Protocol: This assay determines the ability of a test compound to inhibit LSD1 demethylase activity.
The enzymatic assay of LSD1 activity is based on Time Resolved-Fluorescence Resonance Energy Transfer (TR-FRET) detection.
The ability of the compounds disclosed herein to inhibit LSD1 activity was quantified and the respective IC50 value was determined.

COc1ccc(-c2c(-c3cccc(C#N)c3)nc(N3CCC(N)CC3)n(C)c2=O)cc1F [Example 118, 3-[2-(4-aminopiperidin-1-yl)-5-(3-fluoro-4-methoxyphenyl)-1-methyl-6-oxopyrimidin-4-yl]benzonitrile] and COc1ccc(-c2c(-c3ccccc3C#N)nc(N3CCC(N)CC3)n(C)c2=O)cc1F [Example 119, 2-[2-(4-aminopiperidin-1-yl)-5-(3-fluoro-4-methoxyphenyl)-1-methyl-6-oxopyrimidin-4-yl]benzonitrile] cannot be ordered by IC50: over 10000 nM for the first, over 10000 nM for the second.

First: Cn1c(N2CCC(N)CC2)nc(-c2ccc(C#N)c(F)c2)c(C#N)c1=O [Example 121, 2-(4-amino-piperidin-1-yl)-4-(4-cyano-3-fluoro-phenyl)-1-methyl-6-oxo-1,6-dihydro-pyrimidine-5-carbonitrile]
Second: COc1ccc(-c2c(-c3ccc(C#N)c(F)c3)nc(N3CCC(N)CC3)[nH]c2=O)cc1 [Example 122, 4-[2-(4-amino-piperidin-1-yl)-5-(4-methoxy-phenyl)-6-oxo-1,6-dihydro-pyrimidin-4-yl]-2-fluoro-benzonitrile]
The IC50 of the first is higher: 100 to 1000 nM for the first, under 100 nM for the second. The second is the more potent here.
